Test results: patent US8283361B2 (AstraZeneca AB, priority 2008, dated 2012)

target: S. aureus GyrB ATPase (Staphylococcus aureus, UniProt P0A0K8); assay: biochemical; conditions: compound at 1 μM; one value per test if tested more than once; 1 µM
Method: S. aureus GyrB ATPase Inhibition Activity: Compounds may be tested for inhibition of S. aureus GyrB ATPase activity using an ammonium molybdate/malachite green-based phosphate detection assay (Lanzetta, P. A., L. J. Alvarez, P. S. Reinach, and O. A. Candia, 1979, 100: 95-97). Assays can be performed in multiwell plates in 30 μl reactions containing: 50 mM Hepes buffer pH 7.5, 75 mM ammonium acetate, 8.0 mM magnesium chloride, 0.5 mM ethylenediaminetetraacetic acid, 5% glycerol, 1.0 mM 1,4-Dithio-DL-threitol, 200 nM bovine serum albumin, 1.0 μg/m1 sheared salmon sperm DNA, 250 pM E. coli GyrA, 250 pM S. aureus GyrB, 250 μM ATP, and compound in dimethylsulfoxide. Reactions can be quenched with 30 μl of ammonium molybdate/malachite green detection reagent containing 1.2 mM malachite green hydrochloride, 8.5 mM ammonium molybdate tetrahydrate, and 1 M hydrochloric acid. […] An IC50 measurement of compound potency for each compound can be determined from reactions performed in the presence of 10 different compound concentrations.

Chain of S. aureus GyrB ATPase (P0A0K8 whole entry): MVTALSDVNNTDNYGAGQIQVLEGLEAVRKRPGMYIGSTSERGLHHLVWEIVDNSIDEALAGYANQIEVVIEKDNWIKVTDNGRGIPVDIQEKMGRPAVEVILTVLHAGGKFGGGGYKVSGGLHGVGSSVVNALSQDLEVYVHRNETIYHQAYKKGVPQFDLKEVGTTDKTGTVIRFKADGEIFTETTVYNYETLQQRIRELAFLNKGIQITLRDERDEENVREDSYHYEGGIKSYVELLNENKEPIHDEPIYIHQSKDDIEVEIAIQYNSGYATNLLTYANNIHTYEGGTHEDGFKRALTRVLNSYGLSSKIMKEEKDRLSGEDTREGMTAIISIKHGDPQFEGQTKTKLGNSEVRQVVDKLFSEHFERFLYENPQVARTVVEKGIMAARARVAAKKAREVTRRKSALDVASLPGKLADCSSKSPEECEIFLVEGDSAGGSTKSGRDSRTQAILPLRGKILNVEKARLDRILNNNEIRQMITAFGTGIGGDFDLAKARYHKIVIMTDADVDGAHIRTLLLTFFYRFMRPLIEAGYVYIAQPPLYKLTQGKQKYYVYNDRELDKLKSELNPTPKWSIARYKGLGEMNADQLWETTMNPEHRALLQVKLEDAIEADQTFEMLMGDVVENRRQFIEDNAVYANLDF
Chain of S. aureus GyrB ATPase (P0AES4 whole entry, further chain): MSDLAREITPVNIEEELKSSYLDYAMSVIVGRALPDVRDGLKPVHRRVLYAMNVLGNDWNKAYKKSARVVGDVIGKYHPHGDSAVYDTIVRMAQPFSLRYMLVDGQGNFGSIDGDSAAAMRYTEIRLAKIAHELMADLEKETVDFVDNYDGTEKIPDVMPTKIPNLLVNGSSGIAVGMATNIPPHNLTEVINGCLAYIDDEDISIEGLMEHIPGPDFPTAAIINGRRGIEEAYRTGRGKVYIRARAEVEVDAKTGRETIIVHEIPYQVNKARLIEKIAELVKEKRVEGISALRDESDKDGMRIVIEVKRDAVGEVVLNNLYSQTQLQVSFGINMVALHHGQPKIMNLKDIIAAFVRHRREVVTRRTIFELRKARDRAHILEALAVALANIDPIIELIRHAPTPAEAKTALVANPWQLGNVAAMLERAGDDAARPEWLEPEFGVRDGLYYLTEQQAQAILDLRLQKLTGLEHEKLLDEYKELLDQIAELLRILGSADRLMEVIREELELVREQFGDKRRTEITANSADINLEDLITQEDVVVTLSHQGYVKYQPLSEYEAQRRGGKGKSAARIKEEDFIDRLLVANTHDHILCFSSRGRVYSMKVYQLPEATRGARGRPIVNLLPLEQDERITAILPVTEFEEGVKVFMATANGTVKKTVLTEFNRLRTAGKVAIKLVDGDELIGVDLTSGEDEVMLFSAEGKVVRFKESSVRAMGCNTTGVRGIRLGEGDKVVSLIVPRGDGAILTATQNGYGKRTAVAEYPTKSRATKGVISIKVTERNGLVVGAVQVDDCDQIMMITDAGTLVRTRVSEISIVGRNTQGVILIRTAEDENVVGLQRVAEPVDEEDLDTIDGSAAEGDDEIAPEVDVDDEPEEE

Structure (SMILES)	% Inhibition of S. aureus GyrB ATPase
CCNC(=O)Nc1cc(-c2nc(C(F)(F)F)cs2)c(-c2ccc3c(=O)c(C(=O)NC)cn(CC)c3c2)cn1 [Example 33, 1-ethyl-7-(6-(3-ethylureido)-4-(4-(trifluoromethyl)thiazol-2-yl)pyridin-3-yl)-N-methyl-4-oxo-1,4-dihydroquinoline-3-carboxamide]	109%

same assay, conditions: compound at 1 μM; one value per test if tested more than once; read-out: % Inhibition of S. aureus GyrB ATPase

Structure (SMILES)	inhibition at 1 µM
CCNC(=O)Nc1cc(-c2nc(C(F)(F)F)cs2)c(-c2ccc3c(=O)c(C(=O)NC)cn(CC)c3c2)cn1 [Example 33, 1-ethyl-7-(6-(3-ethylureido)-4-(4-(trifluoromethyl)thiazol-2-yl)pyridin-3-yl)-N-methyl-4-oxo-1,4-dihydroquinoline-3-carboxamide]	97%
CCNC(=O)Nc1cc(-c2nc(C(F)(F)F)cs2)c(-c2ccc3c(c2)c(=O)c(C(=O)NC)cn3CC)cn1 [Example 34, 1-ethyl-6-(6-(3-ethylureido)-4-(4-(trifluoromethyl)thiazol-2-yl)pyridin-3-yl)-N-methyl-4-oxo-1,4-dihydroquinoline-3-carboxamide]	100%
CCNC(=O)Nc1cc(-c2nc(CC)cs2)c(-c2ccc3c(=O)c(C(=O)NC)cn(CC)c3c2)cn1 [Example 36, 1-ethyl-7-(4-(4-ethylthiazol-2-yl)-6-(3-ethylureido)pyridin-3-yl)-N-methyl-4-oxo-1,4-dihydroquinoline-3-carboxamide]	64%
CCNC(=O)Nc1cc(-c2nc(CC)cs2)c(-c2ccc3c(c2)c(=O)c(C(=O)NC)cn3CC)cn1 [Example 37, 1-ethyl-6-(4-(4-ethylthiazol-2-yl)-6-(3-ethylureido)pyridin-3-yl)-N-methyl-4-oxo-1,4-dihydroquinoline-3-carboxamide]	96%
CCNC(=O)Nc1cc(-c2nc(CC)cs2)c(-c2cc3c4c(c2)c(=O)c(C(=O)NC)cn4CCO3)cn1 [Example 38, 9-(4-(4-ethylthiazol-2-yl)-6-(3-ethylureido)pyridin-3-yl)-N-methyl-7-oxo-3,7-dihydro-2H-[1,4]oxazino[2,3,4-ij]quinoline-6-carboxamide]	99%
CCNC(=O)Nc1cc(-c2nc(-c3ccccc3)cs2)c(-c2ccc3c(=O)c(C(=O)NC)cn(CC)c3c2)cn1 [Example 39, 1-ethyl-7-(6-(3-ethylureido)-4-(4-phenylthiazol-2-yl)pyridin-3-yl)-N-methyl-4-oxo-1,4-dihydroquinoline-3-carboxamide]	101%
CCNC(=O)Nc1cc(-c2nc(-c3ccccc3)cs2)c(-c2cc3c4c(c2)c(=O)c(C(=O)NC)cn4CCO3)cn1 [Example 41, 9-(6-(3-ethylureido)-4-(4-phenylthiazol-2-yl)pyridin-3-yl)-N-methyl-7-oxo-3,7-dihydro-2H-[1,4]oxazino[2,3,4-ij]quinoline-6-carboxamide]	105%
CCNC(=O)Nc1cc(-c2nc(C(F)(F)F)cs2)c(-c2ccc3c(=O)c(C(=O)OCC)cn(CC)c3c2)cn1 [Example 42, Ethyl 1-ethyl-7-(6-(3-ethylureido)-4-(4-trifluoromethylthiazol-2-yl)pyridin-3-yl)-4-oxo-1,4-dihydroquinoline-3-carboxylate]	113%
CCNC(=O)Nc1cc(-c2nc(-c3ccccc3)cs2)c(-c2ccc3c(=O)c(C(=O)OCC)cn(CC)c3c2)cn1 [Example 44, ethyl 1-ethyl-7-(6-(3-ethylureido)-4-(4-phenylthiazol-2-yl)pyridin-3-yl)-4-oxo-1,4-dihydroquinoline-3-carboxylate]	98%
CCNC(=O)Nc1cc(-c2nc(C(F)(F)F)cs2)c(-c2cc3c4c(c2)c(=O)c(C(=O)OCC)cn4CCO3)cn1 [Example 48, ethyl 9-(6-(3-ethylureido)-4-(4-trifluoromethylthiazol-2-yl)pyridin-3-yl)-7-oxo-3,7-dihydro-2H-[1,4]oxazino[2,3,4-ij]quinoline-6-carboxylate]	106%
CCNC(=O)Nc1cc(-c2nc(C(F)(F)F)cs2)c(-c2ccc3c(c2)c(=O)c(C(=O)O)cn3[C@@H](C)CO)cn1 [Example 71, (S)-6-(6-(3-ethylureido)-4-(4-(trifluoromethyl)thiazol-2-yl)pyridin-3-yl)-1-(1-hydroxypropan-2-yl)-4-oxo-1,4-dihydroquinoline-3-carboxylic acid]	107%
